Our source for the DC50 and IC50 values is US20240308976A1, “COMPOUNDS THAT MEDIATE PROTEIN DEGRADATION AND USES THEREOF” (Monte Rosa Therapeutics, Inc., priority 2021, published 2024).

The DC50 is the midpoint of the concentration-degradation curve. The term IC50 denotes the concentration at which inhibition is half-maximal.

Chain of CRBN-DDB1 (Q96SW2 whole entry): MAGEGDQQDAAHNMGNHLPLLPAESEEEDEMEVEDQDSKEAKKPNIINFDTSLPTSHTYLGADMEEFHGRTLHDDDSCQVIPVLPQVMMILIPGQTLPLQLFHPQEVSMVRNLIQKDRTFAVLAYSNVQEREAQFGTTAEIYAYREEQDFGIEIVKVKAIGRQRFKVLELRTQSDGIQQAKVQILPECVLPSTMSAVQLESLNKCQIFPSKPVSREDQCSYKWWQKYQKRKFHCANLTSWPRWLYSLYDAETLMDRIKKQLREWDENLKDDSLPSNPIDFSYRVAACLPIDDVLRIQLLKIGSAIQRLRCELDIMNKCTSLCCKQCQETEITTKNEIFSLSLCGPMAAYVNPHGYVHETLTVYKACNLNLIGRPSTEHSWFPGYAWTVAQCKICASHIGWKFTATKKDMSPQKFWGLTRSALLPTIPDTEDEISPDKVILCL
Chain of CRBN-DDB1 (Q16531 whole entry partner): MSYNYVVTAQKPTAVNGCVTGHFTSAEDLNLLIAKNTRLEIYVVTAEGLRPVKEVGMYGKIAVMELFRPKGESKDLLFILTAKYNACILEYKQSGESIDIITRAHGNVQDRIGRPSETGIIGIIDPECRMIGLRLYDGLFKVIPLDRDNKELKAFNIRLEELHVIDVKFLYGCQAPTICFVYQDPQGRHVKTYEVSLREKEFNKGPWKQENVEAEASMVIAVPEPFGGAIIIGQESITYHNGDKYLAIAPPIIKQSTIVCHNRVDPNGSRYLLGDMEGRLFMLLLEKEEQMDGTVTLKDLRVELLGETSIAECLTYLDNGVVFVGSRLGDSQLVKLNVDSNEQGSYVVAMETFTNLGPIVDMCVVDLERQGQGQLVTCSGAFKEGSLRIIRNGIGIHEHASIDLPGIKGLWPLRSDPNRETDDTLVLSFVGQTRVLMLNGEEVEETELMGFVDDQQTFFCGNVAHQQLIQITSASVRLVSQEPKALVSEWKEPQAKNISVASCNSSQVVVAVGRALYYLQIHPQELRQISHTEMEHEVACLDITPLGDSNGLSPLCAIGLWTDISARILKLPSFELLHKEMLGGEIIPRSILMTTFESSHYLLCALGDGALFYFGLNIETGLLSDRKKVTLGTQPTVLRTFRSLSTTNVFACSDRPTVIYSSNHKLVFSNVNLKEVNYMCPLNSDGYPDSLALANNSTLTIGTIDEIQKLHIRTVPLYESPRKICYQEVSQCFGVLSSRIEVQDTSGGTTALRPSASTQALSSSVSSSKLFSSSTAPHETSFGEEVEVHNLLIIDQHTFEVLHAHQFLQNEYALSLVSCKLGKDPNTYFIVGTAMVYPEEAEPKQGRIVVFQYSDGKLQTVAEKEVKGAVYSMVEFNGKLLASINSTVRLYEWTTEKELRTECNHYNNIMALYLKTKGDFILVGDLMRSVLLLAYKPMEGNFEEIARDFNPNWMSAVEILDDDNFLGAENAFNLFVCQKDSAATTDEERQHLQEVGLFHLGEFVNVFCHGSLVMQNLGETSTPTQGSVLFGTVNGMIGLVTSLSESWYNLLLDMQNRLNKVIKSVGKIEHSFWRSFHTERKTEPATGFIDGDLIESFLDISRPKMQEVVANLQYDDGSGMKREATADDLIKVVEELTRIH

The target in the first assay is T1, GSPT1 (Homo sapiens, UniProt P15170+Q96SW2).
T1 construct: CAL-51 cells were purchased from DSMZ (cat. Number ACC302); host or cells: CAL-51
T1 sequence (P15170 whole entry): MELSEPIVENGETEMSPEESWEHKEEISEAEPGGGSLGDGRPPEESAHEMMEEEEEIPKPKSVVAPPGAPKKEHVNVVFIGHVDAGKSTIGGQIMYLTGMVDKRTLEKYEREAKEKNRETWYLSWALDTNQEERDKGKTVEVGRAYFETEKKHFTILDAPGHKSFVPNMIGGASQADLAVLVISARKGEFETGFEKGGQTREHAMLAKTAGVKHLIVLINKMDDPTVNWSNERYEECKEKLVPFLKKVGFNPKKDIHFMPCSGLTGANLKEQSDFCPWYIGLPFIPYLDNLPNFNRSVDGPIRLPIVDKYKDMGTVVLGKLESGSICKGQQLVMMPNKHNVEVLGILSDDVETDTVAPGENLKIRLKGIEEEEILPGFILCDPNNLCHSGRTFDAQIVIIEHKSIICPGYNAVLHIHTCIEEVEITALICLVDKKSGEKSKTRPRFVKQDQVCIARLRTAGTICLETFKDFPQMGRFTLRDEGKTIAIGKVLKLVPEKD
T1 sequence (Q96SW2 whole entry): as the sequence (Q96SW2 whole entry) above
T1 sequence (Q16531 2-1140 partner limits assumed): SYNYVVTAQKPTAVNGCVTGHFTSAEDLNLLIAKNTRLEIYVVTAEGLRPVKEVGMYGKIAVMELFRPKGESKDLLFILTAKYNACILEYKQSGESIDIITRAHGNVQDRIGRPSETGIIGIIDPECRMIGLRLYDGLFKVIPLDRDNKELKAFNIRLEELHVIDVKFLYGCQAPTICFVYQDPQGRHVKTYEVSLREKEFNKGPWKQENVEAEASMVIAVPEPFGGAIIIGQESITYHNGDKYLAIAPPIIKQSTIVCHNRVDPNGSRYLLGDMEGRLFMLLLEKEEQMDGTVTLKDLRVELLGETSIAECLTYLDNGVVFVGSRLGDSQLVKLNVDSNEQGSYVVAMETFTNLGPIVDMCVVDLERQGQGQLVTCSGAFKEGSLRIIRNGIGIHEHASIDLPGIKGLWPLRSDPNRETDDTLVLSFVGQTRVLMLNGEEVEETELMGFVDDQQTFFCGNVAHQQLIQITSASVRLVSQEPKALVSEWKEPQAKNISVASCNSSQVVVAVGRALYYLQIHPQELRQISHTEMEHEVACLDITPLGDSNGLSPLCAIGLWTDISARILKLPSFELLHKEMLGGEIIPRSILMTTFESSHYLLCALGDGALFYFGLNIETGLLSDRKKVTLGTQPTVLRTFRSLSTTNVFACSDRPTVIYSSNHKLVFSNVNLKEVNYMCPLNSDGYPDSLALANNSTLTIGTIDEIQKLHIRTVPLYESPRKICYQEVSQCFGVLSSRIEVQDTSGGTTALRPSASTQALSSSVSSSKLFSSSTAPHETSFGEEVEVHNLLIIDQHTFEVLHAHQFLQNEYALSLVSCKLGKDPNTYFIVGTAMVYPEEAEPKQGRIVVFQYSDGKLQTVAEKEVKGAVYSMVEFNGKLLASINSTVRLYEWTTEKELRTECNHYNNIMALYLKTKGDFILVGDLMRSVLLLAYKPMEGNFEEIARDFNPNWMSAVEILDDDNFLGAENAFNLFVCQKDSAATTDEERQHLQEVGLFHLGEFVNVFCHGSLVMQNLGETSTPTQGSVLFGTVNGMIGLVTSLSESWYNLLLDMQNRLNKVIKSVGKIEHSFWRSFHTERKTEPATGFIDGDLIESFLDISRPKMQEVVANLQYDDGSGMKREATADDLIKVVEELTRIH
In words: Immunofluorescence assay for activity to degrade GSPT1 in CAL-51 cells. It counts as cell-based. The note with it: 6 h treatment, read-out: IF Class (GSPT1 degradation, DC50). The procedure:
Example 147: Compound Activity by Immunofluorescence Assay
The representative compounds were tested in an immunofluorescence assay for their activity to degrade GSPT1. CAL-51 cells were purchased from DSMZ (cat. Number ACC302), sub-cultured in 90% Dulbecco's MEM (4.5 g/L glucose, Gibco 11965)+10% heat inactivated FBS (BioConcept, 2-01F136I) and incubated at 37° C., 5% CO2. For the assay imaging microtiter plate Cell Carrier 96 Ultra (Perkin Elmer 6055302) were pre-coated with Fibronectin (Sigma F085, 30 μL at 0.2 μg/mL) in PBS (100 μL, Gibco 14190) for 45 min at room temperature, rinsed with PBS and CAL-51 cells (30K cells/well) were plated and let to adhere overnight. Cells were treated with compounds typically using a serial dilution ranging from 30 μM to 0.1 nM for 6 h. Compounds were stored at 10 mM DMSO stocks. Vehicle (DMSO), positive (CC-885, 10 μM) and rescue controls (positive control plus 0.2 μM bortezomib) were also included at this stage. Cells were subsequently rinsed with PBS and fixed in 10% Formalin solution (50 μL, Sigma HT5011)) for 20 mins at room temperature. Following three consecutive PBS washes (100 μL), cells were permeabilized in 0.1% Triton X-100 in PBS (Sigma 93443, 50 μL) for 15 min. at room temperature. Following three further PBS washes, 50 μL blocking buffer (1% BSA, Sigma A4503, in PBS) was added for 45 min for signal-to noise reduction. Primary antibody (human GSPT1, Sigma HPA052488) was diluted in blocking buffer (dil.1/300, 35 μL/well) and incubated with the cells overnight at 4° C. After three PBS washes, Alexa-fluor 488 coupled secondary antibodies (Invitrogen, A32731, dil. 1/1000), Alexa-fluor 647-Phalloidin (Invitrogen, A22287, dil. 1/200) and DAPI (Thermo, #62248, dil. 1/1000) were diluted in blocking buffer and incubated with the samples for 2 h at room temperature. After three final PBS washes, samples were conserved in 100 μL PBS in the dark, until measurement. Image acquisition was performed on the Operetta High-Content Imager (Perkin-Elmer). Fluorescence intensity of […] (GSPT1), Alexa-Fluor 647 (Actin) and DAPI (Nucleus) were measured. For the determination of GSPT1 DC50 values, a custom algorithm implemented in the PerkinElmer image analysis software Harmony-Acapella® was developed. After user-defined setting of adjustment parameters, the analysis was run identically without human intervention for all image fields. DAPI staining of the nuclei was used to determine the location of cells using standard nuclei detection modules. Segmentation artifacts were removed by threshold-based filters for area, roundness and intensity. The outline of the cells was determined analogously from the sum of the normalized, smoothed DAPI and Actin channel, starting from each nucleus. The Alexa-Fluor 488 (GSPT1) signal intensity in each cell was finally measured, in order to obtain a Mean intensity per cell. GSPT1 degradation (DC50) was calculated after normalization to controls and data import in CDD vault Database, using non-linear regression.
(§1) In Table 2, each compound is assigned a class (HTRF class) indicating the ability for Cereblon binding by means of their HTRF IC50 values according to […]: A, B, C or D. According to the code, A represents an IC50 value of ≤100 nM, B represents an IC50 value>100 nM and ≤1000 nM, C represents an IC50 value>1000 nM. IF Class assigns each compound a code indicating the ability for GSPT1 degradation: A, B or C. According to the code, A represents a DC50 value of ≤30 nM, B represents a DC50 value>30 nM and ≤300 nM and C represents a DC50 value of >300 nM.
In the case of `O=C1CCC(c2c(F)cc(N3CC(OC(=O)N4CC5(COC5)C4)C3)cc2F)C(=O)N1` (stereo not drawn) [Compound 105, 1-(4-(2,6-dioxopiperidin-3-yl)-3,5-difluorophenyl)azetidin-3-yl 2-oxa-6-azaspiro[3.3]heptane-6-carboxylate], the DC50 was more than 300 nM.

Turning to `O=C1CCC(c2c(F)cc(N3CC(OC(=O)N4CCC(F)(F)CC4)C3)cc2F)C(=O)N1` (stereo not drawn) [Compound 142, 1-(4-(2,6-dioxopiperidin-3-yl)-3,5-difluorophenyl)azetidin-3-yl 4,4-difluoropiperidine-1-carboxylate], the half-maximal degradation concentration (DC50) was more than 300 nM.

For the compound `CC1(C)CCC(NC(=O)OC2CN(c3cc(F)c(C4CCC(=O)NC4=O)c(F)c3)C2)CC1` (stereo not drawn) [Compound 93, 1-(4-(2,6-dioxopiperidin-3-yl)-3,5-difluorophenyl)azetidin-3-yl (4,4-dimethylcyclohexyl) carbamate], the half-maximal degradation concentration (DC50) was not above 30 nM.

As to `O=C1CCC(c2c(F)cc(N3CC(NC(=O)N[C@@H]4CCC(F)(F)C4)C3)cc2F)C(=O)N1` (stereo partly drawn) [Compound 111, 1-((R)-3,3-difluorocyclopentyl)-3-(1-(4-(2,6-dioxopiperidin-3-yl)-3,5-difluorophenyl)azetidin-3-yl)urea], the half-maximal degradation concentration (DC50) is more than 300 nM.

In the case of `CO[C@H]1CC[C@@H](NC(=O)OC2CN(c3cc(F)c(C4CCC(=O)NC4=O)c(F)c3)C2)CC1` (stereo partly drawn) [Compound 119, 1-(4-(2,6-dioxopiperidin-3-yl)-3,5-difluorophenyl) azetidin-3-yl ((1S,4S)-4-methoxycyclohexyl) carbamate], the DC50 is more than 300 nM.

Regarding `O=C1CCC(c2c(F)cc(N3CC(OC(=O)NC45CCC(C4)C5)C3)cc2F)C(=O)N1` (stereo not drawn) [Compound 112, 1-(4-(2,6-dioxopiperidin-3-yl)-3,5-difluorophenyl)azetidin-3-ylbicyclo[2.1.1]hexan-1-ylcarbamate], the DC50 fell in the range of 30 to 300 nM.

Take `O=C1CCC(c2c(F)cc(N3CC(OC(=O)NC4CCSCC4)C3)cc2F)C(=O)N1` (stereo not drawn) [Compound 116, 1-(4-(2,6-dioxopiperidin-3-yl)-3,5-difluorophenyl)azetidin-3-yl(tetrahydro-2H-thiopyran-4-yl)carbamate]: the DC50 was not above 30 nM.

In the case of `CN1CCC(CNC(=O)OC2CN(c3cc(F)c(C4CCC(=O)NC4=O)c(F)c3)C2)CC1` (stereo not drawn) [Compound 114, 1-(4-(2,6-dioxopiperidin-3-yl)-3,5-difluorophenyl)azetidin-3-yl((1-methylpiperidin-4-yl)methyl)carbamate], the 50% degradation concentration (DC50) is more than 300 nM.

As to `C[C@H](NC(=O)OC1CN(c2cc(F)c(C3CCC(=O)NC3=O)c(F)c2)C1)C1CCCCC1` (stereo partly drawn) [Compound 115, 1-(4-(2,6-dioxopiperidin-3-yl)-3,5-difluorophenyl)azetidin-3-yl((S)-1-cyclohexylethyl)carbamate], the DC50 was not above 30 nM.

For the compound `O=C1CCC(c2c(F)cc(N3CC(OC(=O)NCC4CCOCC4)C3)cc2F)C(=O)N1` (stereo not drawn) [Compound 117, 1-(4-(2,6-dioxopiperidin-3-yl)-3,5-difluorophenyl)azetidin-3-yl ((tetrahydro-2H-pyran-4-yl)methyl)carbamate], the DC50 was more than 300 nM.

`O=C1CCC(c2c(F)cc(N3CC(OC(=O)NCCC(F)(F)F)C3)cc2F)C(=O)N1` (stereo not drawn) [Compound 109, 1-(4-(2,6-dioxopiperidin-3-yl)-3,5-difluorophenyl)azetidin-3-yl (3,3,3-trifluoropropyl)carbamate]: the 50% degradation concentration (DC50) is more than 300 nM.

With `O=C1CCC(c2c(F)cc(N3CC(OC(=O)NC45CCC(CC4)CC5)C3)cc2F)C(=O)N1` (stereo not drawn) [Compound 98, 1-(4-(2,6-dioxopiperidin-3-yl)-3,5-difluorophenyl)azetidin-3-yl bicyclo[2.2.2]octan-1-ylcarbamate], the 50% degradation concentration (DC50) is not above 30 nM.

With `O=C1CCC(c2c(F)cc(N3CC(OC(=O)NCC45C[C@H]6C[C@@H](C4)C[C@@H](C5)C6)C3)cc2F)C(=O)N1` (stereo partly drawn) [Compound 106, 1-(4-(2,6-dioxopiperidin-3-yl)-3,5-difluorophenyl)azetidin-3-yl((3R,5R,7R)-adamantan-1-ylmethyl) carbamate], the DC50 was not above 30 nM.

On to `CCC(C)CNC(=O)OC1CN(c2cc(F)c(C3CCC(=O)NC3=O)c(F)c2)C1` (stereo not drawn) [Compound 122, 1-(4-(2,6-dioxopiperidin-3-yl)-3,5-difluorophenyl) azetidin-3-yl (2-methylbutyl)carbamate], for which the DC50 fell in the range of 30 to 300 nM.

Turning to `CN1CCC(NC(=O)NC2CN(c3cc(F)c(C4CCC(=O)NC4=O)c(F)c3)C2)C1` (stereo not drawn) [Compound 121, 1-(1-(4-(2,6-dioxopiperidin-3-yl)-3,5-difluorophenyl)azetidin-3-yl)-3-(1-methylpyrrolidin-3-yl)urea], the DC50 was more than 300 nM.

Regarding `COCC(COC)NC(=O)OC1CN(c2cc(F)c(C3CCC(=O)NC3=O)c(F)c2)C1` (stereo not drawn) [Compound 108, 1-(4-(2,6-dioxopiperidin-3-yl)-3,5-difluorophenyl)azetidin-3-yl (1,3-dimethoxypropan-2-yl)carbamate], the DC50 was more than 300 nM.

With `CSCCNC(=O)OC1CN(c2cc(F)c(C3CCC(=O)NC3=O)c(F)c2)C1` (stereo not drawn) [Compound 118, 1-(4-(2,6-dioxopiperidin-3-yl)-3,5-difluorophenyl)azetidin-3-yl(2-(methylthio)ethyl)carbamate], the DC50 is more than 300 nM.

With `O=C1CCC(c2c(F)cc(N3CC(OC(=O)NC4[C@H]5C[C@@H]6C[C@@H](C[C@H]4C6)C5)C3)cc2F)C(=O)N1` (stereo partly drawn) [Compound 107, 1-(4-(2,6-dioxopiperidin-3-yl)-3,5-difluorophenyl)azetidin-3-yl (1R,3S,5R,7R)-adamantan-2-ylcarbamate], the 50% degradation concentration (DC50) fell in the range of 30 to 300 nM.

As for `CC(C)N1CCC(NC(=O)NC2CN(c3cc(F)c(C4CCC(=O)NC4=O)c(F)c3)C2)C1` (stereo not drawn) [Compound 120, 1-(1-(4-(2,6-dioxopiperidin-3-yl)-3,5-difluorophenyl)azetidin-3-yl)-3-(1-isopropylpyrrolidin-3-yl) urea], the DC50 is more than 300 nM.

Another assay addresses CRBN-DDB1 (Homo sapiens, UniProt Q96SW2). The experiment in a line: Compound binding to CRBN by HTRF assay. The note with it: CRBN-DDB1 2.5 nM, Cy5-Thalidomide 100 nM, 30 min at ambient temperature; read-out: HTRF Class (Cereblon binding, HTRF IC50). The procedure: Example 146: Compound Binding to CRBN by HTRF Assay
Compound activity was monitored in a Homogenous Time-Resolved Fluorescence (HTRF) assay using 1-[5-({2-[2-(2-{[2-(2,6-dioxopiperidin-3-yl)-1,3-dioxo-2,3-dihydro-1H-isoindol-4-yl]oxy}acetamido)ethoxy]ethyl}carbamoyl)pentyl]-3,3-dimethyl-2-[(1E,3E)-5-[(2E)-1,3,3-trimethyl-5-sulfo-2,3-dihydro-1H-indol-2-ylidene]penta-1,3-dien-1-yl]-3H-indol-1-ium-5-sulfonate as a fluorescent probe. Biochemical assays were conducted in Greiner white 384 well HiBase plates (Cat. No 784075-25) in 10 μL total volume. A one pot detection solution of CRBN-DDB1 (2.5 nM), Anti-His Terbium Cryptate Gold (1X, PerkinElmer Cat. #: 61HI2TLB), and Cy5-Thalidomide (100 nM, Tenova Cat.: T52461) was prepared in 20 mM HEPES, 20 mM NaCl, 0.2 mM TCEP, 0.2 mM EDTA, and 0.005% Tween20 was dispensed to each assay plate. Compounds were stored in dry, ambient temperatures at 10 mM. A 10-point, 1:3 dilution series was prepared from 10 mM stock concentrations in Echo-compatible LDV plates. 10 nL of each compound dilution series was dispensed into assays wells using an Echo 650 (Labcyte inc. USA). 10 nL of 10 mM Lenalidomide was transferred into the active-control wells for the assay and 10 nL of DMSO was transferred into the neutral-control wells. The assay was then allowed to incubate for 30 min at ambient temperature after transferring compound. Plate measurements were taken on a Pherastar FSX (BMG Labtech, Germany) using the HTRF Red filter (Ex. 337 nm, em1: 620 nm, em2: 665 nm) (Flashes: 50, Integration time: 60-400 us, Z-height: 10 mm, Ratio-multiplier: 10,000). The HTRF signal was then subsequently normalized to the neutral and active controls. Analysis and IC50 values were derived using KNIME analytics (KNIME Zurich) transformation and fitting within Collaborative Drug Discovery (Collaborative Drug Discovery USA). Ki was derived from the geometric mean of the IC50 values using the Cheng-Prustoff transformation.
as §1
In general terms: In TR-FRET formats the signal depends on donor and acceptor labels being close together.
As for `O=C1CCC(c2c(F)cc(N3CC(OC(=O)N4CCC(F)(F)CC4)C3)cc2F)C(=O)N1` (stereo not drawn) [Compound 142, 1-(4-(2,6-dioxopiperidin-3-yl)-3,5-difluorophenyl)azetidin-3-yl 4,4-difluoropiperidine-1-carboxylate], the IC50 lay within 100 to 1000 nM.

For `CC1(C)CCC(NC(=O)OC2CN(c3cc(F)c(C4CCC(=O)NC4=O)c(F)c3)C2)CC1` (stereo not drawn) [Compound 93, 1-(4-(2,6-dioxopiperidin-3-yl)-3,5-difluorophenyl)azetidin-3-yl (4,4-dimethylcyclohexyl) carbamate], the IC50 is not above 100 nM.
